# According to the Deep4Chem optical property database:
# Assay: solvent given as SMILES
# Conditions: in C1CCCCC1
row,Compound,emission maximum
1,COc1ccc(C2=C3C(C)=CC(C)=[N+]3[B-](F)(F)n3c(/C=C/c4ccc(N(C)C)cc4)cc(C)c32)cc1,612 nm
2,CN(C)c1ccc(C(=O)c2ccccc2)cc1,462 nm
3,c1ccc(-c2nn(-c3ccccc3)c3nc4ccc(N(c5ccccc5)c5ccccc5)cc4cc23)cc1,486.62 nm
4,CCCCCCCCCCCCC(CCCCCCCCCC)Cn1c2cc(/C=C/c3nc4ccccc4s3)c3cccc4c5cccc6c(/C=C/c7nc8ccccc8s7)cc1c(c65)c2c34 (configuration not stated),570 nm
5,O=C(O)c1ccccc1Nc1ccccc1,430 nm
6,CN(C)c1ccc2c(c1)C(=O)c1ccccc1-2,600 nm

# Same assay, conditions: in C1CCOC1
row,Compound,emission maximum
1,COc1cc2oc(=O)c3c4ccc(C=O)cc4c4ccc5cccc6c(c1)c2c3c4c56,442 nm
2,CCOC(=O)/C(C#N)=C/c1cc2c3ccccc3n(C)c2cc1OC,460 nm
3,COc1ccc(C2=C3C(C)=CC(C)=[N+]3[B-](F)(F)n3c(/C=C/c4ccc(N(C)C)cc4)cc(C)c32)cc1,664 nm
4,CC1CCC(O)(c2ccc(-c3cccs3)s2)CC1 (configuration not stated),412 nm
5,c1ccc(-c2nn(-c3ccccc3)c3nc4ccc(N(c5ccccc5)c5ccccc5)cc4cc23)cc1,524.66 nm
6,c1ccc2c(c1)c1ccccc1n2-c1ccc(-c2ccn3nc(-c4ccc(-n5c6ccccc6c6ccccc65)cc4)nc3c2)cc1,413 nm
7,O=C(O)c1ccccc1Nc1ccccc1,434 nm
8,Cc1csc2[n+]1[B-](F)(F)OC(c1ccc(N(C)C)cc1)=N2,453 nm

# Same assay, conditions: in C1COCCO1
row,Compound,emission maximum
1,COc1ccc(C2=C3C(C)=CC(C)=[N+]3[B-](F)(F)n3c(/C=C/c4ccc(N(C)C)cc4)cc(C)c32)cc1,648 nm
2,O=C1/C(=C2\Sc3ccc(S(=O)(=O)O)cc3C2=O)Sc2ccc(S(=O)(=O)O)cc21,587 nm
3,c1cc2ccc3ccc(-c4ccc(-c5nnc(-c6ccc(-c7nnc(-c8ccc(-c9ccc%10ccc%11cccc%12ccc9c%10c%11%12)s8)o7)cc6)o5)s4)c4ccc(c1)c2c34,373 nm

# More lines, now with the values ahead:
row,emission maximum,Compound
1,472 nm,Clc1nc(Cl)nc(Nc2ccc3c4cccc5cccc(c6cccc2c63)c54)n1
2,432 nm,O=C(O)c1ccccc1Nc1ccccc1

# Same assay, conditions: in CC1CCCCC1
row,Compound,emission maximum
1,COc1ccc(C2=C3C(C)=CC(C)=[N+]3[B-](F)(F)n3c(/C=C/c4ccc(N(C)C)cc4)cc(C)c32)cc1,612 nm

# Same assay, conditions: in CC#N
row,Compound,emission maximum
1,COc1cccc2cc(-c3cc4cccc(OC)c4oc3=O)oc12,488 nm
2,CCOC(=O)c1c2c3c(ccc(C)c3c3cc4ccccc4cc13)N(C)C2=O,413 nm
3,c1cc2oc3cccc4oc5cccc6oc(c1)c2[c+](c34)c65,524 nm
4,CCOC(=O)/C(C#N)=C/c1cc2c3ccccc3n(C)c2cc1OC,486 nm
5,COc1ccc(C2=C3C(C)=CC(C)=[N+]3[B-](F)(F)n3c(/C=C/c4ccc(N(C)C)cc4)cc(C)c32)cc1,717 nm
6,CC1CCC(O)(c2ccc(-c3cccs3)s2)CC1 (configuration not stated),405 nm
7,c1ccc(-c2nn(-c3ccccc3)c3nc4ccc(N(c5ccccc5)c5ccccc5)cc4cc23)cc1,570.78 nm
8,C/C(=N\Nc1ccc(C#N)cc1)c1cccc(/C(C)=N/Nc2ccc(C#N)cc2)c1,492 nm
9,CCCCCCCCCCCCC(CCCCCCCCCC)Cn1c2cc(/C=C/c3nc4ccccc4s3)c3cccc4c5cccc6c(/C=C/c7nc8ccccc8s7)cc1c(c65)c2c34 (configuration not stated),581 nm
10,c1cc2ccc3ccc(-c4ccc(-c5nnc(-c6ccc(-c7nnc(-c8ccc(-c9ccc%10ccc%11cccc%12ccc9c%10c%11%12)s8)o7)cc6)o5)s4)c4ccc(c1)c2c34,398 nm
11,CCOC(=O)c1c2c3c(ccc(OC)c3c3cc4ccccc4cc13)N(C)C2=O,413 nm
12,Cc1csc2[n+]1[B-](F)(F)OC(c1ccc(N(C)C)cc1)=N2,466 nm

# The remaining lines, values ahead:
row,emission maximum,Compound
1,475 nm,O=C1c2ccccc2-c2c(-c3cc(Cl)ccc3O)[nH]c(=O)n21
2,585 nm,N#CSC1=CC2=C(c3ccccc3)c3ccc(SC#N)n3[B-](F)(F)[N+]2=C1N1CCOCC1
3,477 nm,COC(=O)c1cc(=O)n(Cc2ccccc2)c2cc(-c3ccc(OC)cc3)sc12
4,602 nm,CN(C)c1ccc(C(=O)c2ccccc2)cc1
5,395 nm,Fc1nc(F)c(F)c(/C=C2/C(c3c(F)c(F)nc(F)c3F)=Cc3ccccc32)c1F
6,475 nm,Clc1nc(Cl)nc(Nc2ccc3c4cccc5cccc(c6cccc2c63)c54)n1
7,450 nm,Cc1cccc(C)c1Nc1ccc(/C=C/c2cccnc2)cc1
8,419 nm,Cc1cc2c(ccc3c[n+](C)c(C)cc32)c[n+]1C
9,398 nm,O=C(O)c1ccccc1Nc1ccccc1

# Same assay, conditions: in CC(=O)N(C)C
row,Compound,emission maximum
1,c1cc2ccc3ccc(-c4ccc(-c5nnc(-c6ccc(-c7nnc(-c8ccc(-c9ccc%10ccc%11cccc%12ccc9c%10c%11%12)s8)o7)cc6)o5)s4)c4ccc(c1)c2c34,373 nm

# Same assay, conditions: in CC(C)=O
row,Compound,emission maximum
1,COc1ccc(C2=C3C(C)=CC(C)=[N+]3[B-](F)(F)n3c(/C=C/c4ccc(N(C)C)cc4)cc(C)c32)cc1,695 nm
2,c1ccc(-c2nn(-c3ccccc3)c3nc4ccc(N(c5ccccc5)c5ccccc5)cc4cc23)cc1,551.27 nm

# Same assay, conditions: in CC(C)OC(C)C
row,Compound,emission maximum
1,COc1ccc(C2=C3C(C)=CC(C)=[N+]3[B-](F)(F)n3c(/C=C/c4ccc(N(C)C)cc4)cc(C)c32)cc1,629 nm

# Same assay, conditions: in CCC#N
row,Compound,emission maximum
1,COc1ccc(C2=C3C(C)=CC(C)=[N+]3[B-](F)(F)n3c(/C=C/c4ccc(N(C)C)cc4)cc(C)c32)cc1,710 nm

# Same assay, conditions: in CCCC#N
row,Compound,emission maximum
1,COc1ccc(C2=C3C(C)=CC(C)=[N+]3[B-](F)(F)n3c(/C=C/c4ccc(N(C)C)cc4)cc(C)c32)cc1,695 nm

# Same assay, conditions: in CCCCCC
row,Compound,emission maximum
1,CC1CCC(O)(c2ccc(-c3cccs3)s2)CC1 (configuration not stated),408 nm
2,C/C(=N\Nc1ccc(C#N)cc1)c1cccc(/C(C)=N/Nc2ccc(C#N)cc2)c1,467 nm

# The remaining lines, values ahead:
row,emission maximum,Compound
1,588 nm,N#CSC1=CC2=C(c3ccccc3)c3ccc(SC#N)n3[B-](F)(F)[N+]2=C1N1CCOCC1
2,622 nm,F[B-]1(F)n2c(ccc2-c2ccccc2)C(C(F)(F)F)=C2C=CC(c3ccccc3)=[N+]21
3,383 nm,Cc1cccc(C)c1Nc1ccc(/C=C/c2cccnc2)cc1

# Same assay, conditions: in CCCCCCCCCCO
row,Compound,emission maximum
1,c1cc2ccc3ccc(-c4ccc(-c5nnc(-c6ccc(-c7nnc(-c8ccc(-c9ccc%10ccc%11cccc%12ccc9c%10c%11%12)s8)o7)cc6)o5)s4)c4ccc(c1)c2c34,418 nm

# Same assay, conditions: in CCCCCCCCO
row,Compound,emission maximum
1,c1cc2ccc3ccc(-c4ccc(-c5nnc(-c6ccc(-c7nnc(-c8ccc(-c9ccc%10ccc%11cccc%12ccc9c%10c%11%12)s8)o7)cc6)o5)s4)c4ccc(c1)c2c34,393 nm

# Same assay, conditions: in CCCCCCO
row,Compound,emission maximum
1,c1cc2ccc3ccc(-c4ccc(-c5nnc(-c6ccc(-c7nnc(-c8ccc(-c9ccc%10ccc%11cccc%12ccc9c%10c%11%12)s8)o7)cc6)o5)s4)c4ccc(c1)c2c34,394 nm

# Same assay, conditions: in CCCCCl
row,Compound,emission maximum
1,c1ccc(-c2nn(-c3ccccc3)c3nc4ccc(N(c5ccccc5)c5ccccc5)cc4cc23)cc1,516 nm

# Same assay, conditions: in CCCCO
row,Compound,emission maximum
1,COc1ccc(C2=C3C(C)=CC(C)=[N+]3[B-](F)(F)n3c(/C=C/c4ccc(N(C)C)cc4)cc(C)c32)cc1,678 nm
2,c1cc2ccc3ccc(-c4ccc(-c5nnc(-c6ccc(-c7nnc(-c8ccc(-c9ccc%10ccc%11cccc%12ccc9c%10c%11%12)s8)o7)cc6)o5)s4)c4ccc(c1)c2c34,393 nm

# Same assay, conditions: in CCCCOCCCC
row,Compound,emission maximum
1,COc1ccc(C2=C3C(C)=CC(C)=[N+]3[B-](F)(F)n3c(/C=C/c4ccc(N(C)C)cc4)cc(C)c32)cc1,627 nm
2,Clc1nc(Cl)nc(Nc2ccc3c4cccc5cccc(c6cccc2c63)c54)n1,475 nm
3,c1ccc(-c2nn(-c3ccccc3)c3nc4ccc(N(c5ccccc5)c5ccccc5)cc4cc23)cc1,498.75 nm

# Same assay, conditions: in CCO
row,emission maximum,Compound
1,461 nm,COc1ccc(C(=O)OCc2c(C)c(=O)n3c(=O)c(C)c(C)n23)cc1
2,568 nm,CN(C)c1ccc2cc3ccc(=[N+](C)C)cc-3oc2c1
3,446 nm,CC(C)Nc1cc2sc3cc(NC(C)C)c(F)cc3c(=O)c2cc1F

row,Compound,emission maximum
1,CC1CCC(O)(c2ccc(-c3cccs3)s2)CC1 (configuration not stated),406 nm
2,c1cc2ccc3ccc(-c4ccc(-c5nnc(-c6ccc(-c7nnc(-c8ccc(-c9ccc%10ccc%11cccc%12ccc9c%10c%11%12)s8)o7)cc6)o5)s4)c4ccc(c1)c2c34,393 nm

# Same assay, conditions: in CCOC(C)=O
row,Compound,emission maximum
1,COc1cccc2cc(-c3cc4cccc(OC)c4oc3=O)oc12,460 nm
2,CCOC(=O)/C(C#N)=C/c1cc2c3ccccc3n(C)c2cc1OC,458 nm
3,N#CSC1=CC2=C(c3ccccc3)c3ccc(SC#N)n3[B-](F)(F)[N+]2=C1N1CCOCC1,589 nm
4,COc1ccc(C2=C3C(C)=CC(C)=[N+]3[B-](F)(F)n3c(/C=C/c4ccc(N(C)C)cc4)cc(C)c32)cc1,665 nm
5,Cn1ncc2c3c(C#N)c4c5ccccc5n(C)c4nc3ccc21,478 nm
6,Clc1nc(Cl)nc(Nc2ccc3c4cccc5cccc(c6cccc2c63)c54)n1,469 nm
